Values joined by “and” are separate entries in the source; they are usually repeats but may differ in a detail not shown here. Equal values may be shown once. Read-outs that look alike come from different tables or passages of the source.
Experiments:
[1] = system: CHO and CHO-hPD-L1 xenografts; experiment: In vivo dynamic μPET/CT imaging; settings: NSG mice, i.v.
Protocol: Body weight and tumor development were monitored every second day by caliper measurement. […] The animals were subjected to μPET imaging, when tumors reached a volume of at least 200 mm^3. […] There were no losses. […] The mice were placed in the μPET/CT scanner (Inveon, Siemens Medical Solution, Knoxville, USA), covering the total body, and dynamic imaging was performed for up to 60 min to follow tracer distribution. Images were recorded with frames of 4 × 2 […], and 1 × 500 s. During the whole imaging procedure, vital parameters (respiration, body temperature) were continuously monitored using a dedicated monitoring unit (bioVet; m2m imaging, Cleveland, USA) to ensure the depth of anesthesia and well-being of the animals. […] Volumes of interest (VOIs) were created semiautomatically based on fused μPET and μCT images using PMOD software (Version 3.807; Bruker, Mannheim, Germany). The tracer uptake in the VOIs is normalized to injected dose and volume and expressed as percentage injected dose per cubic centimeter (% ID/cc).

[2] = Plasma stability, mouse plasma; format: in vitro ADME; settings: 60 min, 37 °C
Protocol: (§1) Plasma stability was tested against pooled mouse plasma (Merck KGaA, Darmstadt, Germany) and pooled human plasma (Merck KGaA, Darmstadt, Germany). 25 μL of formulated radiotracer were incubated with 1250 μL of plasma at 37 °C. The amount of intact tracer (%) was determined after 0, 15, 30, and 60 min. 100 μL aliquots were quenched with the same amount of MeCN, centrifuged for 4 min at 4 °C with 21,380g, and analyzed by HPLC setup 1.

[3] = Metabolic stability in human liver microsomes; format: in vitro ADME; settings: 60 min, 37 °C
Protocol: Metabolic stability was tested using pooled, mixed gender, 20 donor human liver microsomes (HLM) (Corning, Corning, USA, Cat. #452161) according to the supplied protocol. In short, 15 μL of HLM (20 mg/mL), 15 μL of nicotinamide adenine dinucleotide phosphate (NADPH) regenerating system solution A (Corning, Corning, USA), 3 μL of solution B (Corning, Corning, USA), and 257 μL of a 1:10 dilution of 10× phosphate-buffered saline (PBS) concentrate (MORPHISTO, Offenbach am Main, Germany) were preincubated at 37 °C for 10 min.
Aliquots were drawn 0, 15, 30, and 60 min after the addition of 5 μL radiotracer, subsequently quenched with the same amount of MeCN, centrifuged for 4 min at 21,380g, and analyzed by HPLC setup 1 for the amount of intact tracer (%).

[4] = system: CHO and CHO-hPD-L1 xenografts; experiment: Ex vivo biodistribution; format: in vivo, NSG mice
Protocol: Ex vivo biodistribution was assessed 30, 40, and 70 min after tracer application in NSG mice. Radioactivity was determined using a Wizard[2] γ counter. Samples were measured for 30 s, CPM-corrected for background counts, and half-life corrected to time of tracer injection. Organs were wet-weighted, and the percentage of injected dose per gram of organ was calculated (% ID/g).

[5] = Plasma stability, human plasma; format: in vitro ADME; settings: 60 min, 37 °C
Protocol: as §1

[6] = Plasma protein binding (centrifugal filters); format: in vitro ADME; settings: 10 kDa centrifugal filters
Protocol: Plasma protein binding was assessed using 10 kDa centrifugal filters (Merck KGaA, Darmstadt, Germany). After centrifugation for 30 min at 21,380g, filtrates, and filters were measured separately in a γ counter. In addition, water was used instead of plasma to assess the nonspecific binding to filters.

[7] = system: PD-L1-negative (CHO) cells; experiment: Competitive radioligand binding assay with [^89Zr]Zr-atezolizumab, PD-L1-negative cells; set-up: species or system Chinese hamster
Protocol: When 5a and 5c were administered at their highest noncytotoxic concentrations, a 50% blockade of antibody binding was observed (p = 0.034, p = 0.025, respectively).
Nonspecific binding of MultiScreen plates (Merck KGaA, Darmstadt, Germany) was blocked with additive-free Ham’s F-12 medium for 30 min, followed by the addition of 2 × 10^5 CHO-K1 (ATCC, Manassas, USA) or CHO-hPD-L1 cells in 150 μL of additive-free Ham’s F-12 medium per well. […] Supernatant was removed after 60 min of incubation using the MultiScreenHTS vacuum filtration system (Merck KGaA, Darmstadt, Germany) and cells were washed twice with DPBS. After drying, filters were punched and measured in a Wizard^2 γ counter (PerkinElmer, Waltham, USA).

human PD-L1 = target: T1, human PD-L1 (Homo sapiens, UniProt Q9NZQ7); experiment: HTRF PD-1/PD-L1 binding assay (cell-free); settings: for IC50: cell-free competitive PD-1/PD-L1 HTRF, mean ± SD, read-out: IC50 (hPD-L1 binding affinity, HTRF); for fold decrease in affinity by methylation at R3*: IC50 ratio, pairs 4c vs 5a, 4c vs 5b, 4e vs 5c, 4e vs 5d
T1 construct: purchased Cisbio Bioassays SAS, Codolet, France 64PD1PEG

PD-L1 [8] = settings: cited from earlier work
PD-L1 (CHO-hPD-L1 cells) = target: T2, PD-L1 (CHO-hPD-L1 cells) (Homo sapiens, UniProt Q9NZQ7); experiment: Competitive radioligand binding assay with [^89Zr]Zr-atezolizumab, PD-L1-positive cells; settings: for % applied activity ([^89Zr]Zr-atezolizumab bound) / blockade of antibody binding: CHO-hPD-L1 cells; for % applied activity ([^89Zr]Zr-atezolizumab bound): preincubation with 5,000 nM blocker; for blockade of antibody binding: highest noncytotoxic concentration; for Ki: range contingent on published KD values of atezolizumab, read-out: Ki (Cheng–Prusoff)
T2 construct: host or cells: CHO (Chinese hamster ovary) cells, kept under G418 selection

[9] = Lipophilicity by HPLC method (μHPLC logD); settings: for chromatographic logD: pH 7.4, μHPLC logD
CHO-hPD-L1 cells = experiment: MTT cell viability assay; format: cell-based, Chinese hamster; settings: Cricetulus griseus, 24 h
PD-L1 [10] = system: PD-L1; set-up: method as in PMID 37409670; settings: B16–F10, no control xenograft; cited from earlier work
[11] = literature IC50 as stated in the original patent, read-out: Lit. IC50
[12] = preincubation with 5,000 nM blocker
[13] = read-out: IC50 (Figure 1, previously reported ligands)

T2 sequence (Q9NZQ7 19-290): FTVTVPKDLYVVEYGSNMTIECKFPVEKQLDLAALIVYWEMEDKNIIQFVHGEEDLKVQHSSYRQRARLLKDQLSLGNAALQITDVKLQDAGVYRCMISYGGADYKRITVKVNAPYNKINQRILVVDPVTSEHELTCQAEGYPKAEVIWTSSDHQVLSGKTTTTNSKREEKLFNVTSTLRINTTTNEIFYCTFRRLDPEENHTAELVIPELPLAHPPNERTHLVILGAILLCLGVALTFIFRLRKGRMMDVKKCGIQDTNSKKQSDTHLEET
T1 sequence (Q9NZQ7 19-238 limits assumed): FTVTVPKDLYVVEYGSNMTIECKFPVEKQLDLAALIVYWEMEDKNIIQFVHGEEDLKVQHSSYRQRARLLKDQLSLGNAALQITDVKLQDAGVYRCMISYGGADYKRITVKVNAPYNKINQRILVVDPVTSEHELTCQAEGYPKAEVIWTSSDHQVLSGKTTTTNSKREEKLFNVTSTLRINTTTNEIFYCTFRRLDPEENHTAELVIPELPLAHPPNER

## Cc1c(COc2cc(OCc3ccnc(C#N)c3)c(CN([11CH3])CCO)cc2Cl)cccc1-c1ccc2c(c1)OCCO2 [[^11C]5c]
[1]
  organ uptake (μPET): high uptake in the liver, intestine, gallbladder, and kidneys
[1]; dynamic scan up to 60 min
  uptake in CHO and CHO-hPD-L1 xenografts (μPET): < 1.2 % ID/cc
[2]
  intact tracer in mouse plasma: over 99%
[3]
  intact tracer after human liver microsomes: 49.3%
[4]; NSG mice
  organ uptake (ex vivo biodistribution): substantial uptake in the liver, lung, and kidneys
[4]; NSG mice, 30, 40 or 70 min p.i.
  ex vivo uptake marked in Figure 9B: < 1.5 % ID/g
[5]
  intact tracer in human plasma: over 99%
[6]
  fraction unbound: 0.011

## atezolizumab: high-affinity anti-PD-L1 antibody used for reference [reference compound]
[7]; preincubation with 200 nM blocker
  % applied activity ([^89Zr]Zr-atezolizumab bound): 0.1 % applied activity
Human PD-L1
  IC50: 4.1 nM

## Cc1c(COc2cc(OCc3cncc(C#N)c3)c(CNC[C@@H](O)CC(=O)O)cc2Cl)cccc1-c1ccc2c(c1)OCCO2 [BMS-1250]
PD-L1 [8]; [11]
  IC50: 1.19 nM

## Cc1c(COc2cc(OCc3cccc(C#N)c3)c(CNC(CO)(Cc3ccccc3)C(=O)O)cc2Cl)cccc1-c1ccc2c(c1)OCCO2 (centres unmarked) [BMS-1218]
PD-L1 [8]; [11]
  IC50: 10.1 nM

## Cc1c(COc2cc(OCc3ccnc(C#N)c3)c(CN(C)[C@H](CO)C(=O)O)cc2Cl)cccc1-c1ccc2c(c1)OCCO2 [Compound 5a, N-(5-Chloro-2-((2-cyanopyridin-4-yl)methoxy)-4-((3-(2,3-dihydrobenzo[b][1,4]dioxin-6-yl)-2-methylbenzyl)oxy)benzyl)-N-methyl-D-serine]
[7]; [12]
  % applied activity ([^89Zr]Zr-atezolizumab bound): 0.2 % applied activity
Human PD-L1
  fold decrease in affinity by methylation at R3*: 1.02 fold
  IC50: 6.2 ± 0.6 nM
PD-L1 (CHO-hPD-L1 cells)
  % applied activity ([^89Zr]Zr-atezolizumab bound): 4.2 % applied activity
  blockade of antibody binding: 50%
  Ki: 700 to 4500 nM
[9]
  chromatographic logD: 3.36 ± 0.04
CHO-hPD-L1 cells; read-out: Relative EC50 (cell viability, MTT)
  EC50: 20600 nM

## Cc1c(COc2cc(OCc3ccnc(C#N)c3)c(CN(C)CCO)cc2Cl)cccc1-c1ccc2c(c1)OCCO2 [Compound 5c, 4-((4-Chloro-5-((3-(2,3-dihydrobenzo[b][1,4]dioxin-6-yl)-2-methylbenzyl)oxy)-2-(((2-hydroxyethyl)(methyl)amino)methyl)phenoxy)methyl)picolinonitrile]
[7]; [12]
  % applied activity ([^89Zr]Zr-atezolizumab bound): 0.1 % applied activity
Human PD-L1
  fold decrease in affinity by methylation at R3*: 1.32 fold
  IC50: 10 nM and 10.2 nM
PD-L1 (CHO-hPD-L1 cells)
  % applied activity ([^89Zr]Zr-atezolizumab bound): 4.7 % applied activity
  blockade of antibody binding: 50%
  Ki: 700 to 4500 nM
[9]; pH 7.4
  μHPLC logD: 4.9 ± 0.3
[9]
  chromatographic logD: 4.93 ± 0.27
CHO-hPD-L1 cells; CHO-hPD-L1 cells, read-out: EC50 (cell viability, MTT)
  EC50: 11600 nM

## CC(=O)NCCNCc1ccc(OCc2cccc(-c3ccccc3)c2C)cc1OCc1ccc(F)c(C)c1 [BMS-1108]
PD-L1 [8]; [11]
  IC50: 624 nM

## Cc1c(COc2ccc(CN[C@H](CO)C(=O)O)c(OCc3cccc(C#N)c3)c2)cccc1-c1ccccc1 [BMS-1016]
PD-L1 [8]; [11]
  IC50: 4.55 nM

## Cc1c(COc2cc(OCc3cccc(C#N)c3)c(CN[C@H](CCO)C(=O)O)cc2Cl)cccc1-c1ccc2c(c1)OCCO2 [BMS-1205]
PD-L1 [8]; [11]
  IC50: 2.71 nM

## Cc1c(COc2ccc(CN[C@](C)(CO)C(=O)O)c(OCc3cccc(C#N)c3)c2Cl)cccc1-c1ccc2c(c1)OCCO2 [BMS-1239]
PD-L1 [8]; [11]
  IC50: 149 nM

## COc1cc(OCc2cccc(-c3ccccc3)c2C)cc(OC)c1CN1CCCC[C@H]1C(=O)O [PD-1/PD-L1 Inhibitor 1, reference compound]
CHO-hPD-L1 cells; read-out: EC50 (cell viability, MTT)
  EC50: 52300 nM

## Cc1c(COc2cc(OCc3cncc(S(C)(=O)=O)c3)c(CO)cc2Cl)cccc1-c1ccc2c(c1)OCCO2 [BMS-3013]
PD-L1 [8]; [11]
  IC50: 80 nM

## Cc1cc(CN2CCCC[C@@H]2C(=O)O)c(OCc2cncc(C#N)c2)cc1OCc1cccc(-c2ccc3c(c2)OCCO3)c1C [BMS-1288]
PD-L1 [8]; [11]
  IC50: 1.88 nM

## Cc1c(COc2cc(OCc3cncc(C#N)c3)c(CN[C@H](CC(N)=O)C(=O)O)cc2Cl)cccc1-c1ccc2c(c1)OCCO2 [BMS-3024]
PD-L1 [8]; [11]
  IC50: 5.54 nM

## Cc1c(COc2cc(OCc3cccc(OS(=O)(=O)[18F])c3)c(CNC(CO)(CO)CO)cc2Cl)cccc1-c1ccc2c(c1)OCCO2 [[^18F]LGSu-1]
PD-L1 [10]
  PD-L1^+ tumor uptake: 3.3 % ID/mL

## COc1ccccc1COc1cc(OCc2cccc(-c3ccc4c(c3)OCCO4)c2C)c(Cl)cc1CN1CCCC[C@H]1C(=O)O [BMS-3029]
PD-L1 [8]; [11]
  IC50: 2350 nM

## CC(=O)NCCNCc1ccc(OCc2cccc(-c3ccccc3)c2C)cc1OCc1ccc(C(=O)O)cc1 [BMS-1043]
PD-L1 [8]; [11]
  IC50: 239 nM

## CC(=O)NCCNCc1ccc(OCc2cccc(-c3ccccc3)c2C)cc1OCc1cc(C#N)ccc1F [BMS-1095]
PD-L1 [8]; [11]
  IC50: 81.2 nM

## Cc1c(COc2cc(OCc3cncc(C#N)c3)c(CN[C@@H](Cc3cccnc3)C(=O)O)cc2Cl)cccc1-c1ccc2c(c1)OCCO2 [BMS-2010]
PD-L1 [8]; [11]
  IC50: 50 nM

## CC(=O)NCCNCc1ccc(OCc2cccc(-c3ccccc3)c2C)cc1OCc1ccccc1[N+](=O)[O-] [BMS-1057]
PD-L1 [8]; [11]
  IC50: 986 nM

## N#Cc1cncc(COc2cc(OCc3cccc(-c4ccccc4)c3Br)c(Cl)cc2CN2CCCC[C@H]2C(=O)O)c1 [Example 8]
PD-L1 [8]; [13]
  IC50: 0.01 to 0.1 nM

## Cc1c(COc2cc(CNC[C@@H](O)C(=O)O)ccc2C(F)(F)F)cccc1-c1ccc2c(c1)OCCO2 [BMS-114]
PD-L1 [8]; [11]
  IC50: 43 nM

## N#Cc1cc(COc2cc(OCc3cccc(-c4ccc5c(c4)OCCO5)c3Br)c(Cl)cc2CN2CCCC[C@H]2C(=O)O)ccn1 [Example 15]
PD-L1 [8]; [13]
  IC50: 0.001 to 0.01 nM

## CC(=O)NCCNCc1ccc(Oc2cccc(-c3ccccc3)c2C)cc1OCc1cccc(NC(=O)OC(C)(C)C)c1 [BMS-1119]
PD-L1 [8]; [11]
  IC50: 14200 nM

Reference: publication PMC10945501, “Development and In Vivo Evaluation of Small-Molecule Ligands for Positron Emission Tomography of Immune Checkpoint Modulation Targeting Programmed Cell Death 1 Ligand 1” (Journal of Medicinal Chemistry, 2024)
